Here are results for 22 compounds from patent US5977169A, “Substituted tetronic acids useful for treating HIV and other retroviruses” (priority 1997, dated 1999).

Where only a bound is given, the exact number is not on record here.

For orientation: inhibition means the drop in the measured response relative to a control, in per cent.

This assay has as its target T1, HIV-1 protease (Human immunodeficiency virus type 1 group M subtype B, UniProt P04585).
T1 construct: The protease (or proteinase) enzyme, consisting of only 99 amino acids
As to the kind of experiment: In vitro HIV protease inhibitory assay (fluorescently labeled substrate, avidin-polystyrene particles). The note with it: for inhibition at 3.3 µM: HIV-1 dose 3.3 μM; for inhibition at 10 µM: HIV-1 dose 10.0 μM; for inhibition at 30 µM: HIV-1 dose 30.0 μM; for inhibition at 1 µM: HIV-1 dose 1.0 μM; for inhibition at 100 µM: HIV-1 dose 100.0 μM; for inhibition at 1.1 µM: HIV-1 dose 1.1 μM. The format is biochemical. The method, then:
The HIV protease screening assay is based on a fluorescently labeled substrate which can be resolved from nonlabeled cleavage product using avidin-polystyrene particles, 0.7-0.9 μm. The substrate is biotinylated at the amino terminal arginine and fluorescently labeled with fluorescein isothiocynate (FITC) at the carboxyl terminal lysine. This assay has been employed to detect novel, nonpeptidic inhibitors of HIV-1 protease. Substrate (20 μl of 0.2 μM), sample (10 μl of desired concentraion), and enzyme (10 μl of 0.1 μM) are added to a 96 well pandex plate. The assay is run in 0.1 M sodium acetate buffer at pH 5.5 in the presence of 1.0 M sodium chloride and 0.05% NP-40 and incubated in the dark for one hour at room temperature. Avidin coated polystyrene beads (40 μl of 0.1% (w/v)) are added and the incubation is continued in the dark for an additional half hour. The labeled cleavage product is separated from the unreacted substrate via filtration and is read on the IDEXX Screen Machine. (IDEXX Corporation--Portland, Me.) The data are analyzed by appropriate computer algorithms to ascertain percent inhibition values.
The Activity Table showing the results of the HIV Protease Inhibitory Assay appears below in TABLE 1. The table has three columns, the left column provides the code number of the compound for easy cross reference to structure tables and detailed procedures, the middle column provides the concentration of test compound and the column on the right provides the percent inhibition.

In the case of `CCCC1(Cc2ccccc2)OC(=O)C(C(c2cccc(NS(=O)(=O)c3ccccc3)c2)C(C)C)=C1O` (stereo not drawn) [IX-27, Benzenesulfonamide, N-(3-(1-(2,5-dihydro-4-hydroxy-2-oxo-5--(phenylmethyl)-5-propyl-3-furanyl)-2-methylpropyl)phenyl)-], the inhibition at 3.3 µM worked out at 105%, the inhibition at 10 µM was 117% and the inhibition at 30 µM stood at 106%.

As for `C=CC(C1=C(O)C(CCCc2ccccc2)OC1=O)c1ccccc1` (stereo not drawn) [FX-3, 2(5H)-Furanone, 4-hydroxy-3-(1-phenyl-2-propenyl)-5-(3-phenylpropyl)-], the inhibition at 3.3 µM was determined as 38.6%, the inhibition at 10 µM amounted to 66.3% and the inhibition at 30 µM is 68.6%.

Consider `N#Cc1ccc(S(=O)(=O)Nc2cccc(CC3=C(O)C(Cc4ccccc4)(Cc4ccccc4)OC3=O)c2)cc1` [IX-56], for which the inhibition at 3.3 µM came to 81.9%, the inhibition at 10 µM came out at 101% and the inhibition at 30 µM turned out to be 92.5%.

As for `O=C1OC(CCc2ccccc2)C(O)=C1C(c1ccccc1)C1CC1` (stereo not drawn) [BX-2, 2(5H)-Furanone, 3(cyclopropylphenylmethyl)-4-hydroxy-5-(2-phenylethyl)-], the inhibition at 1 µM came out at 47.2%, the inhibition at 10 µM was determined as 81% and the inhibition at 100 µM was 81.4%.

With `CC(C)(C)OC(=O)N1CCC2(CC1)OC(=O)C(C(c1ccccc1)C1CC1)=C2O` (stereo not drawn) [OX-1, 3-(Cyclopropyl-phenyl-methyl)-4-hydroxy-2-oXo-1-oca-8-aza-spiro[4.5]dec-3-ene-8-carboxylic acid tert-butyl ester], the inhibition at 3.3 µM stood at 78.8%, the inhibition at 10 µM is 89.9% and the inhibition at 30 µM was found to be 100%.

In the case of `CCCC1(CCC)OC(=O)C(C(c2cccc(NS(=O)(=O)c3ccccc3)c2)C2CC2)=C1O` (stereo not drawn) [IX-15, Benzenesulfonamide, N-(3-(cyclopropyl(1,5-dihydro-4-hydroxy-2-oxo-5,5-dipropyl-3-furanyl)methyl)phenyl)-], the inhibition at 1.1 µM came out at 104%. Moreover, the inhibition at 0.12 µM (HIV-1 dose 0.12 μM) amounted to 94%. Besides, the inhibition at 0.37 µM (HIV-1 dose 0.37 μM) amounted to 102%.

Turning to `CCCC1(Cc2ccccc2)OC(=O)C(C(c2cccc(NS(=O)(=O)c3cn(C)cn3)c2)C(C)C)=C1O` (stereo not drawn) [IX-30], the inhibition at 3.3 µM stood at 97.1%, the inhibition at 10 µM stood at 96.6% and the inhibition at 30 µM came out at 94.3%.

As for `CC(C)C1(C(C)C)OC(=O)C(C(c2ccccc2)C2CC2)=C1O` (stereo not drawn) [BX-13, 2(5H)-Furanone, 3-(cyclopropylphenylmethyl)-4-hydroxy-5,5-bis(1-methylethyl)-], the inhibition at 1.1 µM came to 94.1%, the inhibition at 3.3 µM turned out to be 104% and the inhibition at 10 µM was found to be 108%.

Take `CCC(c1ccccc1)C1OC(=O)C(C(c2ccccc2)C2CC2)=C1O` (stereo not drawn) [GX-6, 2(5H)-Furanone, 3-(cyclopropylphenylmethyl)-4-hydroxy-5-(1-phenylpropyl)-]: the inhibition at 3.3 µM was 91.9%, the inhibition at 10 µM was found to be 99.7% and the inhibition at 30 µM amounted to 103%.

As to `CCC1(Cc2ccccc2)OC(=O)C(C(c2ccccc2)C2CC2)=C1O` (stereo not drawn) [DX-3, 2(5H)-Furanone, 3-(cyclopropylphenylmethyl)-5-ethyl-4-hydroxy-5-(phenyl-methyl)-], the inhibition at 3.3 µM was found to be 95.5%, the inhibition at 10 µM stood at 103% and the inhibition at 30 µM was 105%.

As to `CCCC1(CCC)OC(=O)C(C(c2cccc(NS(=O)(=O)c3ncc[nH]3)c2)C2CC2)=C1O` (stereo not drawn) [IX-36], the inhibition at 3.3 µM was determined as 37%, the inhibition at 10 µM came to 79.6% and the inhibition at 30 µM amounted to 83%.

In the case of `CCC1(Cc2ccccc2)OC(=O)C(C(c2ccccc2)C(C)C)=C1O` (stereo not drawn) [IX-9, 2(5H)-Furanone, 5-ethyl-4-hydroxy-3-(2-methy1-1-phenylpropyl)-5-(phenyl-methyl)-], the inhibition at 3.3 µM was 103%, the inhibition at 10 µM came out at 109% and the inhibition at 30 µM is 108%.

In the case of `CCC1(CC)OC(=O)C(C(c2ccccc2)C2CC2)=C1O` (stereo not drawn) [BX-14, 2(5H)-Furanone, 3-(cyclopropylphenymethyl)-5,5-diethyl-4-hydroxy-], the inhibition at 3.3 µM was found to be 92.7%, the inhibition at 10 µM was 94% and the inhibition at 30 µM came out at 99%.

Consider `Cn1cnc(S(=O)(=O)Nc2cccc(C(C3=C(O)C(Cc4ccccc4)(Cc4ccccc4)OC3=O)C3CC3)c2)c1` (stereo not drawn) [IX-45, 1H-Imidazole-4-sulfonamide, N-(3-(cyclopropyl-(5,5-dibenzyl-4-hydroxy-2-oxo-2,5-dihydro-3-furanyl)methyl)phenyl)-1-methyl-], for which the inhibition at 3.3 µM amounted to 91.9%, the inhibition at 10 µM turned out to be 94.3% and the inhibition at 30 µM is 80.9%.

Take `CCCC1(CCC)OC(=O)C(C(Cc2ccccc2)c2cccc(NS(=O)(=O)c3cn(C)cn3)c2)=C1O` (stereo not drawn) [IX-40]: the inhibition at 3.3 µM came out at 90.8%, the inhibition at 10 µM came to 91.1% and the inhibition at 30 µM was 104%.

As for `CCC1(CCc2ccccc2)OC(=O)C(C(c2ccccc2)C2CC2)=C1O` (stereo not drawn) [DX-7, 2(5H)-Furanone, 3-(cyclopropylphenylmethyl)-5-ethyl-4-hydroxy-5-(2-phenyl-ethyl)-], the inhibition at 3.3 µM is 108%, the inhibition at 10 µM was 112% and the inhibition at 30 µM is 103%.

Turning to `COC(=O)CC(CCc1ccccc1)C1OC(=O)C(C(c2ccccc2)C2CC2)=C1O` (stereo not drawn) [HX-1, 2-Furanpropanoic acid, 4-(cyclopropylphenyl-methyl)-2,5-dihydro-3-hydroxy-5--oxo-β-(2-phenylethyl)-, methyl ester], the inhibition at 1.1 µM stood at 37.6%, the inhibition at 3.3 µM came to 62.1% and the inhibition at 10 µM was determined as 90.9%.

Take `O=C1OC2(CCN(C(=O)OCC3c4ccccc4-c4ccccc43)CC2)C(O)=C1C(c1ccccc1)C1CC1` (stereo not drawn) [IX-58, 3-(Cyclopropyl-phenyl-methyl)-4-hydroxy-2-oxo-1-oxa-8-aza-spiro[4.5]dec-3-ene-8-carboxylic acid 9H-fluoren-9-ylmethyl ester]: the inhibition at 3.3 µM amounted to 79.8%, the inhibition at 10 µM is 86.8% and the inhibition at 30 µM amounted to 87.4%.

Consider `CCCC1OC(=O)C(C(c2ccccc2)C2CC2)=C1O` (stereo not drawn) [BX-4, 2(5H)-Furanone, 3-(cyclopropylphenylmethyl)-4-hydroxy-5-propyl-], for which the inhibition at 1 µM was less than 10%, the inhibition at 10 µM was found to be 61.1% and the inhibition at 100 µM turned out to be 83.3%.

As for `O=C1OC2(CCCCC2CCc2ccccc2)C(O)=C1C(c1ccccc1)C1CC1` (stereo not drawn) [IX-5, 1-Oxaspiro[4.5]dec-3-en-2-one, 3-(cyclo-propylphenylmethyl)-4-hydroxy--6-(2-phenylethyl)-], the “HIV-1 Protease % Inhibition” value was determined as 91.93% (test compound concentration 3.3 μM), 95.68% (test compound concentration 10.0 μM) and 92.9% (test compound concentration 30.0 μM).

`O=C1OC(Cc2ccccc2)(Cc2ccccc2)C(O)=C1C(c1cccc(NS(=O)(=O)c2ccc(F)cc2)c1)C1CC1` (stereo not drawn) [IX-44]: the inhibition at 3.3 µM is 90.3%, the inhibition at 10 µM turned out to be 92.3% and the inhibition at 30 µM worked out at 80.3%.

`CCCC1(CCC)OC(=O)C(C(CC)c2cccc(N)c2)=C1O` (stereo not drawn) [IX-13, 2(5H)-Furanone, 3-(1-(3-aminophenyl)propyl)-4-hydroxy-4-hydroxy-5,5-dipropyl-]: the inhibition at 3.3 µM was 59.9%, the inhibition at 10 µM was determined as 86.5% and the inhibition at 30 µM is 89.4%.
